Counter-ions that a name gives are not always drawn.
Row | SMILES | melting point
1 | O=C(Nc1cccc2c1C(=O)N(CCC(=O)N1CCN(c3ccncc3)CC1)C2)c1ccc(Cl)s1 (as salt: TFA) [Example 88] | 118 °C
2 | O=C(Nc1cccc2c1C(=O)N(CC(=O)N1CCN(CC(=O)N3CCCC3)CC1)C2=O)c1ccc(Cl)s1 [Example 19] | 122 °C
3 | O=C(Nc1cccc2c1C(=O)N(CC(=O)N1CCN(CCCN3CCCCC3)CC1)C2=O)c1ccc(Cl)s1 [Example 20] | 104 °C
4 | O=C(Nc1cccc2c1C(=O)N(CC(=O)N1CCN(CC(=O)N3CCOCC3)CC1)C2=O)c1ccc(Cl)s1 [Example 21] | 230 °C
5 | O=C(Nc1cccc2c1C(=O)N(CC(=O)N1CCC(NCc3cccnc3)CC1)C2=O)c1ccc(Cl)s1 [Example 24] | 220 °C
6 | O=C(CN1C(=O)c2cccc(NC(=O)c3ccc(Cl)s3)c2C1=O)NCC1CCN(c2ccncc2)CC1 [Example 28] | 256 °C
7 | O=C(Nc1cccc2c1C(=O)N(C1CCN(c3ccncc3)CC1)C2=O)c1ccc(Cl)s1 [Example 63, 5-Chloro-N-{1,3-dioxo-2-[1-(4-pyridinyl)-4-piperidinyl]-2,3-dihydro-1H-isoindol-4-yl}-2-thiophenecarboxamide] | 214 °C
8 | O=C(Nc1cccc2c1C(=O)N(CC(=O)N1CCC(CO)CC1)C2O)c1ccc(Cl)s1 (stereo not shown) [Example 89] | 233 °C
9 | O=C(Nc1cccc2c1C(O)N(CC(=O)N1CCC(CO)CC1)C2=O)c1ccc(Cl)s1 (stereo not shown) [Example 90] | 234 °C (dec.)
10 | O=C(Nc1cccc2c1CN(CC(=O)N1CCC(CO)CC1)C2=O)c1ccc(Cl)s1 [Example 92] | 209 °C

More lines, now with the values ahead:

Row | melting point | SMILES
11 | 167 °C | O=C(Nc1cccc2c1C(=O)N(CCC(=O)N1CCN(c3ccncc3)CC1)C2=O)c1ccc(Cl)s1 [Example 5, 5-Chloro-N-(1,3-dioxo-2-{3-oxo-3-[4-(4-pyridinyl)piperazino]propyl}-2,3-dihydro-1H-isoindol-4-yl)-2-thiophenecarboxamide]
12 | 237 °C | O=C(Nc1cccc2c1C(=O)N(CC(=O)N1CCN(c3cnccn3)CC1)C2=O)c1ccc(Cl)s1 [Example 6]
13 | 203 °C | O=C(Nc1cccc2c1C(=O)N(CC(=O)N1CCN(c3ccccn3)CC1)C2=O)c1ccc(Cl)s1 [Example 7]
14 | 136 °C | Cc1cccc(N2CCN(C(=O)CN3C(=O)c4cccc(NC(=O)c5ccc(Cl)s5)c4C3=O)CC2)c1 [Example 8]
15 | 169 °C (dec.) | N#Cc1ccc(N2CCN(C(=O)CN3C(=O)c4cccc(NC(=O)c5ccc(Cl)s5)c4C3=O)CC2)nc1 [Example 9]
16 | 209 °C | O=C(Nc1cccc2c1C(=O)N(CC(=O)N1CCN(c3cccc4[nH]ccc34)CC1)C2=O)c1ccc(Cl)s1 [Example 10]
17 | 277 °C | O=C(Nc1cccc2c1C(=O)N(CC(=O)N1CCN(c3ncnc4sccc34)CC1)C2=O)c1ccc(Cl)s1 [Example 12]
18 | 242 °C | N#Cc1nccnc1N1CCN(C(=O)CN2C(=O)c3cccc(NC(=O)c4ccc(Cl)s4)c3C2=O)CC1 [Example 13]
19 | 241 °C | Cc1cccc(N2CCN(C(=O)CN3C(=O)c4cccc(NC(=O)c5ccc(Cl)s5)c4C3=O)CC2)n1 [Example 14]
20 | 124 °C | CC(C)NC(=O)CN1CCN(C(=O)CN2C(=O)c3cccc(NC(=O)c4ccc(Cl)s4)c3C2=O)CC1 [Example 16]
21 | 189 °C | CN(C)C(=O)CN1CCN(C(=O)CN2C(=O)c3cccc(NC(=O)c4ccc(Cl)s4)c3C2=O)CC1 [Example 17]
22 | 158 °C | COCCN1CCN(C(=O)CN2C(=O)c3cccc(NC(=O)c4ccc(Cl)s4)c3C2=O)CC1 [Example 22]
23 | 178 °C | Nc1cnccc1N1CCN(C(=O)CN2C(=O)c3cccc(NC(=O)c4ccc(Cl)s4)c3C2=O)CC1 [Example 27]
24 | 203 °C | O=C(Nc1cccc2c1C(=O)N(CC(=O)N1CCN(c3ccc4c(c3)OCO4)CC1)C2=O)c1ccc(Cl)s1 [Example 32]
25 | 198 °C | O=C(Nc1cccc2c1C(=O)N(CC(=O)N1CCC(CO)CC1)C2=O)c1ccc(Cl)s1 [Example 36, 5-Chloro-N-(2-{2-[4-(hydroxymethyl)piperidino]-2-oxoethyl}-1,3-dioxo-2,3-dihydro-1H-isoindol-4-yl)-2-thiophenecarboxamide]

— patent US7482472B2, “Substituted isoindoles and their use” (Bayer Healthcare AG, priority 2002, dated 2009)
